Data as given in patent US12365651B2, “Use of pirfenidone and derivatives for modulation of B lymphocyte activity and organ protection from acute tissue damage” (Washington University, priority 2017, dated 2025).
Values joined by “and” are separate entries in the source; they are usually repeats but may differ in a detail not shown here. Equal values may be shown once.

What was measured:
[1] = Plasma pharmacokinetics after IV or PO administration; assay type: in vivo; details: SD Rat, 96 mg/kg
[2] = test system: Peritoneal derived inflammatory cells; assay: In vitro immunomodulatory effect of tested PEG compounds (CD86 on CD19+ cells, LPS); assay type: cell-based, mouse; details: potency in molarity; toxicity by visual inspection and DAPI staining (FIG. 11D)
Procedure: Peritoneal derived inflammatory cells were collected on day for post intraperitoneal injection of Thyoglicollate. Cells were cultured for 24 h in baseline condition (control), in the presence of LPS 100 ng/ml (LPS) or in the presence of LPS 100 ng/ml and various concentrations of different forms of Pegylated Pirfenidone (named C2 and C3 in FIG. 11A and C4 to C6 in FIG. 11B)). After the 24 h in culture cells were collected and analyzed via flow cytometry to assess the expression of CD86 on CD19+ cells (B lymphocytes). […] FIG. 11C reports the molecular weights of the tested forms of PEGylated Pirfenidone and the molecular weight (MW) ration between the tested compound and Pirfenidone).

[3] = Plasma pharmacokinetics after IV or PO administration; assay type: in vivo, SD Rat
Procedure: Pirfenidone and Pegyonde-6 were administered at equimolar concentrations to rats IV or per os (PO) and serum concentrations measured at different time points to measure pharmacokinetic parameters. The drugs were solubilized in 5% Alcohol+20% PEG 300 in saline.

[4] = SD Rat, IV 96 mg/kg, individual rats 4-6, 96 mg/kg
[5] = SD Rat, PO 96 mg/kg, individual rats 10-12, 96 mg/kg

COCCOCCOCCOCCOCCOCc1ccc(-n2cc(C)ccc2=O)cc1 [PEG-Pirfenidone]
Plasma concentrations of PEG-Pirfenidone ([1]; IV 96 mg/kg, 0.083 h, individual rats 4-6): 44227 ng/mL and 56484 ng/mL and 96487 ng/mL
Plasma concentrations of PEG-Pirfenidone ([1]; IV 96 mg/kg, 0.5 h, individual rats 4-6): 13073 ng/mL and 18584 ng/mL and 19790 ng/mL
Plasma concentrations of PEG-Pirfenidone ([1]; PO 96 mg/kg, 2 h, individual rats 10-12): 219 ng/mL and 885 ng/mL and 217 ng/mL
relative potency to Pirfenidone and in vitro toxicity [2]: superior to the other tested variants
AUC0-t, Mean ([3]; SD Rat, IV 96 mg/kg): 34197 ng·h/mL
AUC0-∞, Mean ([3]; SD Rat, IV 96 mg/kg): 34229 ng·h/mL
AUMC0-t, Mean ([3]; SD Rat, IV 96 mg/kg): 18176 h*h*ng/mL
AUMC0—∞, Mean ([3]; SD Rat, IV 96 mg/kg): 18540 h*h*ng/mL
CL(/F), Mean ([3]; SD Rat, IV 96 mg/kg): 48.72 mL/min/kg
Cmax, Mean ([3]; SD Rat, IV 96 mg/kg): 65733 ng/mL
MRTINF, Mean ([3]; SD Rat, IV 96 mg/kg): 33.8 min
T1/2, Mean ([3]; SD Rat, IV 96 mg/kg): 79.8 min
Tmax, Mean ([3]; SD Rat, IV 96 mg/kg): 4.98 min
Vss (/F), Mean ([3]; SD Rat, IV 96 mg/kg): 1.7 L/kg
Plasma concentrations of PEG-Pirfenidone, Mean ([3]; SD Rat, IV 96 mg/kg, 0.083 h): 65733 ng/mL
Plasma concentrations of PEG-Pirfenidone, Mean ([3]; SD Rat, IV 96 mg/kg, 0.25 h): 41336 ng/mL
Plasma concentrations of PEG-Pirfenidone ([3]; SD Rat, IV 96 mg/kg, 0.25 h, individual rats 4-6, 96 mg/kg): 27605 ng/mL and 35059 ng/mL and 61343 ng/mL
Plasma concentrations of PEG-Pirfenidone, Mean ([3]; SD Rat, IV 96 mg/kg, 0.5 h): 17149 ng/mL
Plasma concentrations of PEG-Pirfenidone, Mean ([3]; SD Rat, IV 96 mg/kg, 1 h): 6090 ng/mL
Plasma concentrations of PEG-Pirfenidone ([3]; SD Rat, IV 96 mg/kg, 1 h, individual rats 4-6, 96 mg/kg): 5974 ng/mL and 6543 ng/mL and 5755 ng/mL
Plasma concentrations of PEG-Pirfenidone, Mean ([3]; SD Rat, IV 96 mg/kg, 2 h): 1533 ng/mL
Plasma concentrations of PEG-Pirfenidone ([3]; SD Rat, IV 96 mg/kg, 2 h, individual rats 4-6, 96 mg/kg): 1786 ng/mL and 2091 ng/mL and 721 ng/mL
Plasma concentrations of PEG-Pirfenidone, Mean ([3]; SD Rat, IV 96 mg/kg, 4 h): 183 ng/mL
Plasma concentrations of PEG-Pirfenidone ([3]; SD Rat, IV 96 mg/kg, 4 h, individual rats 4-6, 96 mg/kg): 216 ng/mL and 156 ng/mL and 178 ng/mL
Plasma concentrations of PEG-Pirfenidone, Mean ([3]; SD Rat, IV 96 mg/kg, 8 h): 20.3 ng/mL
Plasma concentrations of PEG-Pirfenidone ([3]; SD Rat, IV 96 mg/kg, 8 h, individual rats 4-6, 96 mg/kg): 12.9 ng/mL and 11.5 ng/mL and 36.3 ng/mL
Plasma concentrations of PEG-Pirfenidone, Mean ([3]; SD Rat, IV 96 mg/kg, 24 h): 2.97 ng/mL
Plasma concentrations of PEG-Pirfenidone ([3]; SD Rat, IV 96 mg/kg, 24 h, individual rats 4-6, 96 mg/kg): BLOQ (Below lower limit of quantification (1 ng/mL)) (2×) and 2.97 ng/ml
Tmax ([3]; SD Rat, IV 96 mg/kg, individual rats 4-6): 4.98 min
AUC0-t [3, 4]: 26338 ng·h/mL and 32960 ng·h/mL and 43292 ng·h/mL
AUC0-∞ [3, 4]: 26353 ng·h/mL and 32968 ng·h/mL and 43367 ng·h/mL
AUMC0-t [3, 4]: 16980 h*h*ng/mL and 20439 h*h*ng/mL and 17108 h*h*ng/mL
AUMC0—∞ [3, 4]: 17118 h*h*ng/mL and 20640 h*h*ng/mL and 17863 h*h*ng/mL
CL(/F) [3, 4]: 60.72 mL/min/kg and 48.53 mL/min/kg and 36.9 mL/min/kg
Cmax [3, 4]: 44227 ng/mL and 56484 ng/mL and 96487 ng/mL
MRTINF [3, 4]: 39 min and 37.6 min and 24.7 min
T1/2 [3, 4]: 48.2 min and 106 min and 85.8 min
Vss (/F) [3, 4]: 2.366 L/kg and 1.823 L/kg and 0.912 L/kg
AUC0-t, Mean ([3]; SD Rat, PO 96 mg/kg): 16811 ng·h/mL
AUC0-∞, Mean ([3]; SD Rat, PO 96 mg/kg): 16838 ng·h/mL
AUMC0-t, Mean ([3]; SD Rat, PO 96 mg/kg): 10264 h*h*ng/mL
AUMC0—∞, Mean ([3]; SD Rat, PO 96 mg/kg): 10527 h*h*ng/mL
Cmax, Mean ([3]; SD Rat, PO 96 mg/kg): 23584 ng/mL
MRTINF, Mean ([3]; SD Rat, PO 96 mg/kg): 37.6 min
T1/2, Mean ([3]; SD Rat, PO 96 mg/kg): 70.8 min
Tmax, Mean ([3]; SD Rat, PO 96 mg/kg): 15 min
F % ([3]; SD Rat, PO 96 mg/kg vs IV 96 mg/kg): 49.16%
Plasma concentrations of PEG-Pirfenidone, Mean ([3]; SD Rat, PO 96 mg/kg, 0.25 h): 23584 ng/mL
Plasma concentrations of PEG-Pirfenidone ([3]; SD Rat, PO 96 mg/kg, 0.25 h, individual rats 10-12, 96 mg/kg): 8298 ng/mL and 40817 ng/mL and 21638 ng/mL
Plasma concentrations of PEG-Pirfenidone, Mean ([3]; SD Rat, PO 96 mg/kg, 0.5 h): 19224 ng/mL
Plasma concentrations of PEG-Pirfenidone ([3]; SD Rat, PO 96 mg/kg, 0.5 h, individual rats 10-12, 96 mg/kg): 3977 ng/mL and 35217 ng/mL and 18477 ng/mL
Plasma concentrations of PEG-Pirfenidone, Mean ([3]; SD Rat, PO 96 mg/kg, 1 h): 3748 ng/mL
Plasma concentrations of PEG-Pirfenidone ([3]; SD Rat, PO 96 mg/kg, 1 h, individual rats 10-12, 96 mg/kg): 1157 ng/mL and 7033 ng/mL and 3053 ng/mL
Plasma concentrations of PEG-Pirfenidone, Mean ([3]; SD Rat, PO 96 mg/kg, 2 h): 440 ng/mL
Plasma concentrations of PEG-Pirfenidone, Mean ([3]; SD Rat, PO 96 mg/kg, 4 h): 69 ng/mL
Plasma concentrations of PEG-Pirfenidone ([3]; SD Rat, PO 96 mg/kg, 4 h, individual rats 10-12, 96 mg/kg): 28.4 ng/mL and 129 ng/mL and 48.8 ng/mL
Plasma concentrations of PEG-Pirfenidone, Mean ([3]; SD Rat, PO 96 mg/kg, 8 h): 14 ng/mL
Plasma concentrations of PEG-Pirfenidone ([3]; SD Rat, PO 96 mg/kg, 8 h, individual rats 10-12, 96 mg/kg): 3.09 ng/mL and 33.4 ng/mL and 6.16 ng/mL
Plasma concentrations of PEG-Pirfenidone ([3]; SD Rat, PO 96 mg/kg, 24 h, individual rats 10-12): BLOQ (Below lower limit of quantification (1 ng/mL))
Tmax ([3]; SD Rat, PO 96 mg/kg, individual rats 10-12): 15 min
AUC0-t [3, 5]: 4853 ng·h/mL and 30468 ng·h/mL and 15112 ng·h/mL
AUC0-∞ [3, 5]: 4858 ng·h/mL and 30533 ng·h/mL and 15123 ng·h/mL
AUMC0-t [3, 5]: 3178 h*h*ng/mL and 19172 h*h*ng/mL and 8441 h*h*ng/mL
AUMC0—∞ [3, 5]: 3221 h*h*ng/mL and 19815 h*h*ng/mL and 8544 h*h*ng/mL
Cmax [3, 5]: 8298 ng/mL and 40817 ng/mL and 21638 ng/mL
MRTINF [3, 5]: 39.8 min and 38.9 min and 33.9 min
T1/2 [3, 5]: 60.6 min and 80.4 min and 71.4 min
half-life compared with Pirfenidone ([3]; rats, equimolar, after both IV and PO administration): longer half-life than Pirfenidone
